The values below come from patent US12378211B2, “Carbonic anhydrase inhibitors and antibiotics against multidrug resistant bacteria” (Purdue Research Foundation, priority 2018, dated 2025).

Data set [1] relates to Enterococcus faecium E417-HM-965. As to the kind of experiment: MIC of CAIs in BHIB and TSB. The data set is classed as cell-based. The conditions noted are these: Enterococcus faecium, read-out: MIC. How it is done: (§1) The minimum inhibitory concentrations (MICs) of CAIs were tested against clinical isolates of vancomycin sensitive and vancomycin resistant Enterococci strains as per the guidelines provided by the Clinical and Laboratory Standards Institute (CLSI). The selected strains of Enterococci were streaked on Tryptic Soy Agar (TSA) plates and let grow for 24 hours at 37° C. Afterwards, a bacterial solution equivalent to 0.5 McFarland standard was prepared and diluted in tryptone soy broth (TSB) or brain heart infusion broth (BHIB) to achieve a bacterial concentration of about 5×10^5 CFU/mL and seeded in 96-well well plates. Compounds and control drugs were added in the first row of the 96-well plates and serially diluted along the plates. Plates were then incubated aerobically at 37° C. for 18-20 hours. MICs reported in Table 5 are the minimum concentration of the compounds/control drugs that could inhibit completely the visual growth of the bacteria.

The test system of data set [2] is Enterococcus faecium Patient #2-1-NR-31909. The data set is described as follows: MIC of CAIs in BHIB and TSB. The data set is classed as cell-based. As to conditions: Enterococcus faecium, read-out: MIC. As to the method: as §1
Data set [3] concerns Enterococcus fecalis Strain SF 24397 NR31970. The data set is described as follows: MIC of CAIs in BHIB and TSB. It counts as cell-based. The conditions noted are these: Enterococcus, read-out: MIC. As to the method: as §1
The subject of data set [4] is Enterococcus faecalis—S613 HM-334. As to the kind of experiment: MIC of CAIs in BHIB and TSB. It counts as cell-based. The conditions noted are these: Enterococcus, read-out: MIC. How it is done: as §1, with “bacteria. The MIC values of CAIs against the tested VRE strains were higher in BHIB than in TSB. This may be due to binding of these drugs to proteins. […] They inhibited the VRE strains at MIC values ranging from 1 to 4 μg/mL.” for “bacteria.”

For data set [5], the system named is vancomycin-resistant E. faecium. The data set is described as follows: Mouse model of GI colonization by VRE. The data set is classed as in vivo, C57BL/6 mice. The source says:
Feasibility in vivo study: AZM reduces VRE load in the intestines and faeces. The promising feature, and the specific and potent antimicrobial activity of CAIs, prompted us to evaluate the in vivo efficacy of AZM in our established mouse model of GI colonization by enterococci with features that mimic the antibiotic-induced enterococcal expansion observed in humans (Mohammad, H. et al., Int J Antimicrob Agents 2018, 51, 897-904; Abdelkhalek, A, et al., PLoS One 2018, 13, e0199710). We tested AZM (two clinical doses 10 and 20 mg/kg) in female 12-week-old C57BL/6 mice (n=5 mice per group) that were sensitized with ampicillin ([…] in drinking water) for 7 days to reduce the microbiota present in the gastrointestinal tract and colonized with 10^8 CFU/mL of vancomycin-resistant E. faecium.
We thought that the rapid absorption of AZM from the gastrointestinal tract would limit their exposure time to VRE present in the gastrointestinal tract.
Mice were treated for 8 days with 10 mg/kg of drugs by oral gavage.

In a further data set the test system is E. faecium NR 31909. As to conditions: oral 20 mg/kg daily for 4 days. From the text: Saline was used as a negative control. Mice were euthanized on day 5 and organs (liver, spleen and kidneys) were aseptically removed and homogenized, and viable VRE were enumerated by serial dilution and plating.
The conditions of data set [6]: cited from earlier work.
The conditions of data set [7]: cited from earlier work. This is another data set of the same source.

What is called MIC is the smallest concentration in the dilution series that meets the test's criterion for growth inhibition.

Read-outs that look alike come from different tables or passages of the source.

For the molecule `CC(=O)Nc1nnc(S(N)(=O)=O)s1` [Acetazolamide, reference compound], the MIC in data set [1] (E417HM965, BHIB) was 8 µg/mL; in data set [1] (E417HM965, TSB, Table 5), 2 µg/mL; in data set [2] (BHIB), 64 µg/mL; in data set [2] (TSB, Table 5), 2 µg/mL; in data set [3] (BHIB) it was > 128 µg/mL; in data set [3] (TSB, Table 5) it was 2 µg/mL. Besides, the MIC in data set [4] (BHIIB) was > 128 µg/mL; in data set [4] (TSB, Table 5) it was 2 µg/mL. Besides, the “VRE decolonization compared with linezolid” value in data set [5] (AZM 10 and 20 mg/kg, linezolid 10 mg/kg once daily for 8 days) is reported as “outperformed linezolid”. Moreover, the “VRE in feces, cecal content and ileal content compared to control mice” value in data set [5] (once a day at 10 mg/kg or 20 mg/kg, feces as early as 3rd day) was “significant reduction”. Further, the “mice protected against a lethal dose (survival)” value in the data set with E. faecium NR 31909 (from two hours after challenge) is reported as 100%. Further, the “reduction of bacterial load in internal organs” value with E. faecium NR 31909 (liver, spleen, kidneys on day 5) is “superior to linezolid”. Further, the “time to peak plasma concentrations” value in data set [6] (after oral administration) is 1 to 3 h. Further, the serum concentration in data set [6] (after single oral dose) was 20000 to 100000 ng/mL. Also, in data set [7], the “oral LD50 (mouse)” value is listed as 4300 mg/kg.

In the case of `CC(=O)NC[C@H]1CN(c2ccc(N3CCOCC3)c(F)c2)C(=O)O1` [Linezolid, reference compound], the MIC in data set [3] (TSB, Table 5) is 1 µg/mL; in data set [4] (BHIIB), 1 µg/mL; in data set [4] (TSB, Table 5), 1 µg/mL.
